Results on 28 compounds are retold here after patent US7947830B2, “Substituted propenyl piperazine derivatives as novel inhibitors of histone deacetylase” (Janssen Pharmaceutica N.V., priority 2004, dated 2011).

As usually defined, the melting point is the temperature of the solid-liquid transition.

Data set [1] concerns the target histone deacetylase (HeLa nuclear extracts). Briefly: In vitro assay for inhibition of histone deacetylase (HDAC Fluorescent Activity Assay, Fluor de Lys). The following applies: Fluor de Lys substrate. It counts as biochemical. An excerpt:
The in vitro assay for inhibition of histone deacetylase (see example C.1) measures the inhibition of HDAC enzymatic activity obtained with the compounds of formula (I).
The HDAC Fluorescent Activity Assay/Drug Discovery Kit of Biomol (cat.No: AK-500-0001) was used. The HDAC Fluorescent Activity Assay is based on the Fluor de Lys (Fluorogenic […] deAcetylase Lysyl) substrate and developer combination. The Fluor de Lys substrate, comprises an acetylated lysine side chain. Deacetylation of the substrate sensitizes the substrate so that, in the second step, treatment with the Fluor de Lys developer produces a fluorophore.
After 30 min, 1 volume of the developer was added. […] For each experiment, controls (containing HeLa nuclear extract and buffer), a blank incubation (containing buffer but no HeLa nuclear extract) and samples (containing compound dissolved in DMSO and further diluted in buffer and HeLa nuclear extract) were run in parallel. […] All sample were tested 4 times. In each test the blank value was substracted from both the control and the sample values. The control sample represented 100% of substrate deactylation. For each sample the fluorescence was expressed as a percentage of the mean value of the controls. […] Herein the effects of test compounds are expressed as pIC50 (the negative log value of the IC50-value) (see Table F-3).

Data set [2] concerns A2780 ovarian carcinoma cells. Briefly: Antiproliferative activity on A2780 cells (MTT). Type of data set: cell-based, human. The following applies: four days of incubation; for IC50: Homo sapiens, A2780, 96 h, read-out: Cellular activity pIC50 C.2. (converted). Here is the method:
Cellular activity of the compounds of formula (I) was determined on A2780 tumour cells using a […] assay for cell toxicity or survival (Mosmann Tim, Journal of Immunological Methods 65: 55-63, 1983)(see example C.2).
All compounds tested were dissolved in DMSO and further dilutions were made in culture medium. Final DMSO concentrations never exceeded 0.1% (v/v) in cell proliferation assays. Controls contained A2780 cells and DMSO without compound and blanks contained DMSO but no cells. MTT was dissolved at 5 mg/ml in PBS. A glycine buffer comprised of 0.1 M glycine and 0.1 M NaCl buffered to pH 10.5 with NaOH (1 N) was prepared (all reagents were from Merck).
The human A2780 ovarian carcinoma cells (a kind gift from Dr. T. C. Hamilton [Fox Chase Cancer Centre, Pennsylvania, USA]) were cultured in RPMI 1640 medium supplemented with 2 mM L-glutamine, 50 μg/ml gentamicin and 10% fetal calf serum.
Cells were routinely kept as monolayer cultures at 37° C. in a humidified 5% CO2 atmosphere. Cells were passaged once a week using a trypsin/EDTA solution at a split ratio of 1:40. All media and supplements were obtained from Life Technologies. Cells were free of mycoplasma contamination as determined using the Gen-Probe Mycoplasma Tissue Culture kit (supplier: BioMérieux).
Cells were seeded in NUNC™ 96-well culture plates (Supplier: Life Technologies) and allowed to adhere to the plastic overnight. Densities used for plating were 1500 cells per well in a total volume of 200 μl medium. After cell adhesion to the plates, medium was changed and drugs and/or solvents were added to a final volume of 200 μl. Following four days of incubation, medium was replaced by 200 μl fresh medium and cell density and viability was assessed using an MTT-based assay. To each well, 25 μl […] solution was added and the cells were further incubated for 2 hours at 37° C. The medium was then carefully aspirated and the blue MTT-formazan product was solubilized by addition of 25 μl glycine buffer followed by 100 μl of DMSO. […] Within an experiment, the results for each experimental condition are the mean of 3 replicate wells. For initial screening purposes, compounds were tested at a single fixed concentration of 10^−6 M. For active compounds, the experiments were repeated to establish full concentration-response curves. For each experiment, controls (containing no drug) and a blank incubation (containing no cells or drugs) were run in parallel. The blank value was subtracted from all control and sample values. For each sample, the mean value for cell growth (in absorbance units) was expressed as a percentage of the mean value for cell growth of the control. […] Herein the effects of test compounds are expressed as pIC50 (the negative log value of the IC50-value)(see Table F-3).

Data set [3] in a line: Solubility at different pH's, chemiluminescent nitrogen detector (C.3.b). It counts as physicochemical. The note with it: for solubility: pH 2.3, aqueous buffer, read-out: Solubility C.3.b. pH = 2.3 mg/ml. From the text: In a second method the solubility of a compound at different pH's can be measured with the use of a chemiluminescent nitrogen detector (see example C.3.b).
The solubility of a compound, at different pH's, can also be measured with the use of a cherniluminescent nitrogen detector (see Table F-3).

≈ marks a conversion by molar mass, not a printed value.

`O=C(NO)c1cnc(N2CCN(C(/C=C/c3ccc(Cl)cc3)CN3CCOCC3)CC2)nc1` (stereo not drawn) (hydrate or solvate) [Compound 2] showed a melting point of 135 °C.

Compound `CN(C)C(=O)C(C)(/C=C/c1ccc(F)cc1)N1CCN(c2ncc(C(=O)NO)cn2)CC1` (stereo not drawn) (hydrate or solvate) [Compound 10] returned a melting point of 146 °C.

Consider `O=C(NO)c1cnc(N2CCN([C@@H](/C=C/c3ccccc3)CO)CC2)nc1` (single isomer, unassigned) [Compound 25], for which the “Enzymatic activity pIC50 C.1.” value in data set [1] is recorded as 7.9. For the same compound, the “Cellular activity pIC50 C.2.” value in data set [2] is reported as 7.6. Moreover, the solubility in data set [3] was found to be 3400 µg/mL (≈ 9.2 mM).

On to `O=C(NO)c1cnc(N2CCN([C@@H](/C=C/c3ccccc3)CO)CC2)nc1` (single isomer, unassigned) [Compound 26], for which the “Enzymatic activity pIC50 C.1.” value in data set [1] is 8.3. For the same compound, the “Cellular activity pIC50 C.2.” value in data set [2] is listed as 7.2. Further, in data set [3], the “Solubility C.3.b. pH = 2.3 mg/ml” value is on record as 3.5 mg/ml.

Consider `O=C(NO)c1cnc(N2CCN([C@@H](/C=C/c3ccc(F)cc3)CO)CC2)nc1` (single isomer, unassigned) [Compound 27], for which the “Cellular activity pIC50 C.2.” value in data set [2] worked out at 7.5.

For the compound `O=C(NO)c1cnc(N2CCN([C@H](/C=C/c3ccc(F)cc3)CO)CC2)nc1` (single isomer, unassigned) [Compound 28], in data set [2], the “Cellular activity pIC50 C.2.” value was 7.5.

`O=C(NO)c1cnc(N2CCN([C@@H](/C=C/c3ccc(F)cc3)CO)CC2)nc1` (single isomer, unassigned) [Compound 33]: the “Cellular activity pIC50 C.2.” value in data set [2] is on record as 8.2.

As to `O=C(NO)c1cnc(N2CCN([C@H](/C=C/c3ccc(F)cc3)CO)CC2)nc1` (single isomer, unassigned) [Compound 34], in data set [2], the “Cellular activity pIC50 C.2.” value is on record as 7.9.

As for `CC(/C=C/c1ccccc1)N1CCN(c2ncc(C(=O)NO)cn2)CC1` (stereo not drawn) [Compound 7], the melting point is 161 °C. For the same compound, in data set [1], the “Enzymatic activity pIC50 C.1.” value is above 9. In addition, the IC50 in data set [2] is 31.6 nM. For the same compound, the solubility in data set [3] was 2000 µg/mL (≈ 5.66 mM).

For the compound `O=C(NO)c1cnc(N2CCN(C(/C=C/c3ccc(F)cc3)CO)CC2)nc1` (stereo not drawn) [Compound 8], in data set [2], the IC50 is 12.6 nM. The solubility in data set [3] worked out at 2900 µg/mL (≈ 7.49 mM).

`CC(=O)OCC(/C=C/c1ccccc1)N1CCN(c2ncc(C(=O)NO)cn2)CC1` (stereo not drawn) [Compound 9]: the melting point turned out to be 161 °C. For the same compound, the “Enzymatic activity pIC50 C.1.” value in data set [1] was 9.4. For the same compound, in data set [2], the IC50 is 25.1 nM.

Regarding `CN(C)C(=O)C(C)(/C=C/c1ccc(F)cc1)N1CCN(c2ncc(C(=O)NO)cn2)CC1` (stereo not drawn) [Compound 10], the “Enzymatic activity pIC50 C.1.” value in data set [1] is 8.4. In data set [2], the IC50 was 31.6 nM. Also, in data set [3], the solubility was 3000 µg/mL (≈ 6.78 mM).

In the case of `COCC(/C=C/c1ccccc1)N1CCN(c2ncc(C(=O)NO)cn2)CC1` (stereo not drawn) [Compound 11], the melting point turned out to be 212 °C. Besides, the “Enzymatic activity pIC50 C.1.” value in data set [1] was 9.4. For the same compound, the IC50 in data set [2] is 10 nM. Moreover, the solubility in data set [3] is 3100 µg/mL (≈ 8.08 mM).

As to `Cc1ccc(/C=C/C(CO)N2CCN(c3ncc(C(=O)NO)cn3)CC2)cc1` (stereo not drawn) [Compound 12], the “Enzymatic activity pIC50 C.1.” value in data set [1] came out at 9.0. Moreover, the IC50 in data set [2] was 31.6 nM. In data set [3], the solubility was found to be 2100 µg/mL (≈ 5.48 mM).

`CC(/C=C/c1ccccc1)(C(=O)N1CCOCC1)N1CCN(c2ncc(C(=O)NO)cn2)CC1` (stereo not drawn) [Compound 13]: the “Enzymatic activity pIC50 C.1.” value in data set [1] stood at 8.8. Also, the IC50 in data set [2] is 100 nM. Besides, in data set [3], the solubility is 3700 µg/mL (≈ 7.93 mM).

`CCN(C)C(=O)C(C)(/C=C/c1ccc(F)cc1)N1CCN(c2ncc(C(=O)NO)cn2)CC1` (stereo not drawn) [Compound 14]: the “Enzymatic activity pIC50 C.1.” value in data set [1] is listed as 8.5. In addition, in data set [2], the IC50 is 39.8 nM. The solubility in data set [3] amounted to 2800 µg/mL (≈ 6.13 mM).

Consider `CNC(=O)C(/C=C/c1ccccc1)N1CCN(c2ncc(C(=O)NO)cn2)CC1` (stereo not drawn) [Compound 16], for which the “Enzymatic activity pIC50 C.1.” value in data set [1] worked out at 7.4. The IC50 in data set [2] is 79.4 nM. Further, the solubility in data set [3] stood at 2800 µg/mL (≈ 7.06 mM).

As to `O=C(NO)c1cnc(N2CCN(C(/C=C/c3ccccc3)C(=O)N3CCOCC3)CC2)nc1` (stereo not drawn) [Compound 17], in data set [1], the “Enzymatic activity pIC50 C.1.” value was determined as 8.8. Moreover, the IC50 in data set [2] was 200 nM. In addition, the solubility in data set [3] turned out to be 2200 µg/mL (≈ 4.86 mM).

As for `CN(C)CCNC(=O)C(/C=C/c1ccccc1)N1CCN(c2ncc(C(=O)NO)cn2)CC1` (stereo not drawn) [Compound 18], the “Enzymatic activity pIC50 C.1.” value in data set [1] was found to be 8.5. For the same compound, in data set [2], the IC50 was 100 nM. Besides, in data set [3], the solubility stood at 3600 µg/mL (≈ 7.94 mM).

For the compound `O=C(NO)c1cnc(N2CCN(C(/C=C/c3ccccc3)C(=O)NCCO)CC2)nc1` (stereo not drawn) [Compound 19], the “Enzymatic activity pIC50 C.1.” value in data set [1] came out at 8.4. Also, the IC50 in data set [2] is 501 nM. The solubility in data set [3] turned out to be 2600 µg/mL (≈ 6.1 mM).

Consider `CCCCN(C)C(=O)C(C)(/C=C/c1ccc(F)cc1)N1CCN(c2ncc(C(=O)NO)cn2)CC1` (stereo not drawn) [Compound 20], for which, in data set [1], the “Enzymatic activity pIC50 C.1.” value amounted to 7.7. Further, the IC50 in data set [2] was 50.1 nM.

As to `O=C(NO)c1cnc(N2CCN(C(/C=C/c3ccccc3)CN3CCOCC3)CC2)nc1` (stereo not drawn) [Compound 21], the “Enzymatic activity pIC50 C.1.” value in data set [1] turned out to be 7.9. For the same compound, the IC50 in data set [2] is 158 nM. The solubility in data set [3] amounted to 2100 µg/mL (≈ 4.79 mM).

As for `CN1CCN(CC(/C=C/c2ccccc2)N2CCN(c3ncc(C(=O)NO)cn3)CC2)CC1` (stereo not drawn) [Compound 22], the “Enzymatic activity pIC50 C.1.” value in data set [1] worked out at 7.9. Besides, the IC50 in data set [2] was 158 nM. In addition, in data set [3], the solubility turned out to be 4200 µg/mL (≈ 9.3 mM).

`O=C(NO)c1cnc(N2CCN(C(/C=C/c3ccccc3)Cn3ccnc3)CC2)nc1` (stereo not drawn) [Compound 23]: in data set [1], the “Enzymatic activity pIC50 C.1.” value turned out to be 8.0. Further, the IC50 in data set [2] is 251 nM.

Turning to `CCOCC(/C=C/c1ccccc1)N1CCN(c2ncc(C(=O)NO)cn2)CC1` (stereo not drawn) [Compound 24], in data set [1], the “Enzymatic activity pIC50 C.1.” value was determined as 8.8. Also, in data set [2], the IC50 is 31.6 nM. In addition, the solubility in data set [3] came to 4000 µg/mL (≈ 10.1 mM).

On to `O=C(NO)c1ccc(N2CCN(C(/C=C/c3ccc(F)cc3)CO)CC2)nc1` (stereo not drawn) [Compound 31], for which the melting point amounted to 145 °C. For the same compound, in data set [1], the “Enzymatic activity pIC50 C.1.” value was 8.5. Also, the IC50 in data set [2] was 39.8 nM.

For `COCC(/C=C/c1ccc(F)cc1)N1CCN(c2ncc(C(=O)NO)cn2)CC1` (stereo not drawn) [Compound 32], in data set [1], the “Enzymatic activity pIC50 C.1.” value is recorded as above 9. The IC50 in data set [2] was below 31.6 nM.

Take `CC(/C=C/c1ccccc1)N1CCN(c2ncc(C(=O)NO)cn2)CC1` (stereo not drawn) [Compound 35]: in data set [1], the “Enzymatic activity pIC50 C.1.” value is on record as 9.6. Further, the “Cellular activity pIC50 C.2.” value in data set [2] is 7.8.
